Assay results from patent publication US8101768B2, “Cyclic amine compound and pest control agent” (Nippon Soda Co., Ltd., priority 2004, dated 2012).

How the values were obtained:
[1] = system: acaricide resistant citrus red mites; test: Effect on Citrus Red Mite (spray on mandarin orange leaves); format: in vivo; conditions: 31 ppm, emulsifiable concentrate of Formulation Example 2 sprayed, 10 female adults, 25° C., 65% humidity
Description: Effect on Citrus Red Mite
10 female adults of acaricide resistant citrus red mites were inoculated onto leaves of a mandarin orange placed on dishes, onto which each of liquid agents, diluted with water so as to adjust the respective concentration of the chemical compounds to 31 ppm according to the formulation of the emulsifiable concentrate shown in the aforementioned Formulation Example 2, was sprayed by using a rotating sparge tower. After they were left in a thermostatic chamber at 25° C. in 65% humidity for 3 days, and were then removed from the dishes, eggs laid for 3 days were investigated whether they could grow to adults or not on the eleventh day. As the results, the following chemical compounds killed 100% of the adults. 1-13, 1-15, 1-22, 1-27, 1-45, 1-54, 1-59, 1-63, 1-66, 1-69, 1-71, 1-72, 1-75, 1-80, 1-88, 1-89, 1-92, 1-93, 1-94, 1-97, 1-98, 1-100, 1-102, 1-105, 1-108, 1-133, 1-136, 1-142, 1-153, 1-181, 1-183, 1-186, 1-187, 1-188, 1-189, 1-190, 1-191,

[2] = system: organophosphorous agent resistant two-spotted spider mites; test: Effect on Two-spotted Spider Mite (spray on kidney bean leaves); format: in vivo; conditions: 125 ppm, water dispersible powder of Formulation Example 1 sprayed, 17 female adults, 25° C., 65% humidity, 3 days
Procedure, shortened: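 Kidney bean first leaves bearing 17 adult female organophosphate-resistant mites were sprayed with a water-dispersible powder formulation at 125 ppm. Held 3 days at 25 °C, 65% humidity, then adult mortality scored; run in duplicate.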

Structure (SMILES)	killed ... of the adults (eggs laid for 3 days investigated whether they could grow to adults on the eleventh day) [1] [%]	rate of killed adults [2] [%]
Cc1noc(-c2cc(C(F)(F)F)ccc2O[C@@H]2[C@@H]3CC[C@H]2CN(c2ccc(C(F)(F)F)cn2)C3)n1 [5-256]	100	100
FC(F)(F)c1ccc(N2CC3CCC(C2)C3Oc2ccc(C(F)(F)F)cc2OCC2OCCO2)nc1 (stereo not shown) [5-203]	100	100
O=S(=O)(Oc1cc(C(F)(F)F)ccc1OC1C2CCC1CN(c1ccc(C(F)(F)F)cn1)C2)C(F)(F)F (stereo not shown) [5-234]	100	100
N#Cc1ccc(O[C@@H]2[C@@H]3CC[C@H]2CN(c2ccc(C(F)(F)F)cn2)C3)c(OCC2CC2)c1 [5-121]	100	100
CCCOc1cc(C(F)(F)F)ccc1OC1C2CCCC1CN(c1ccc(C(F)(F)F)cn1)C2 (stereo not shown) [7-82, 90-[2-propoxy-4-(trifluoromethyl)phenoxy]-3-[5-(trifluoromethyl)-2-pyridyl]-3-azabicyclo[3.3.1]nonane]	100	100
N#Cc1ccc(N2C[C@H]3CC[C@@H](C2)[C@@H]3Oc2ccc(C(F)(F)F)cc2OCC2CC2)nc1 [5-120]	100	100
CC(C)COc1cc(C(F)(F)F)ccc1O[C@@H]1[C@@H]2CC[C@H]1CN(c1ccc(C(F)(F)F)cn1)C2 [5-105]	100	100
FC(F)c1ccc(O[C@@H]2[C@@H]3CC[C@H]2CN(c2ccc(C(F)(F)F)cn2)C3)c(OCC2CC2)c1 [5-118]	100	100
COC(=O)c1cc(C(F)(F)F)ccc1O[C@@H]1[C@@H]2CC[C@H]1CN(c1ccc(C(F)(F)F)cn1)C2 [5-243]	100	100
FC(F)(F)c1ccc(N2C[C@H]3CCC[C@@H](C2)[C@@H]3Oc2ccc(C(F)(F)F)cc2OCC2CC2)nc1 [7-103]	100	100
CCOc1cc(C(F)(F)F)ccc1O[C@@H]1[C@@H]2CC[C@H]1CN(c1ccc(C(F)(F)F)cn1)C2 [5-90]	100	100
FC(F)(F)c1ccc(N2C[C@H]3CC[C@@H](C2)[C@@H]3Oc2ccc(C(F)(F)F)cc2Br)nc1 [5-22]	100	100
CC(C)Oc1cc(C(F)(F)F)ccc1OC1CCN(c2ccc(C(F)(F)F)cn2)CC1 [1-100]	100	100
CCS(=O)(=O)Oc1cc(C(F)(F)F)ccc1OC1C2CCC1CN(c1ccc(C(F)(F)F)cn1)C2 (stereo not shown) [5-162]	100	100
CCCOc1cc(C(F)(F)F)ccc1OC1CCN(c2ccc(C(F)(F)F)cn2)CC1C (stereo not shown) [1-98]	100	100
CCOC(C)OCc1cc(C(F)(F)F)ccc1OC1C2CCC1CN(c1ccc(C(F)(F)F)cn1)C2 (stereo not shown) [5-229]	100	100
C#CCOc1cc(C(F)(F)F)ccc1OC1C2CCC1CN(c1ccc(C(F)(F)F)cn1)C2 (stereo not shown) [5-177]	100	100
COCOc1cc(C(F)(F)F)ccc1O[C@@H]1[C@@H]2CC[C@H]1CN(c1ccc(C(F)(F)F)cn1)C2 [5-110]	100	100
CCCCOc1cc(C(F)(F)F)ccc1OC1C2CCC1CN(c1ccc(C(F)(F)F)cn1)C2 (stereo not shown) [5-224]	100	100
C=CCOc1cc(C(F)(F)F)ccc1OC1CCN(c2ccc(C(F)(F)F)cn2)CC1 [1-142]	100	100
FC(F)(F)c1ccc(N2CC3CCC(C2)C3Oc2ccc(C(F)(F)F)cc2C2C=CCO2)nc1 (stereo not shown) [5-236]	100	100

Structure (SMILES)	killed ... of the adults (eggs laid for 3 days investigated whether they could grow to adults on the eleventh day) [1] [%]	rate of killed adults [2] [%]
CC(C)OC(=O)c1cc(C(F)(F)F)ccc1O[C@@H]1[C@@H]2CC[C@H]1CN(c1ccc(C(F)(F)F)cn1)C2 [5-245]	100	100
COC(C)OCc1cc(C(F)(F)F)ccc1OC1CCN(c2ccc(C(F)(F)F)cn2)CC1C (stereo not shown) [1-188]	100	100
CC1COC(c2cc(C(F)(F)F)ccc2OC2C3CCC2CN(c2ccc(C(F)(F)F)cn2)C3)O1 (stereo not shown) [5-218]	100	100
CC(C)OCc1cc(C(F)(F)F)ccc1OC1C2CCC1CN(c1ccc(C(F)(F)F)cn1)C2 (stereo not shown) [5-225]	100	100
FC(F)(F)c1ccc(N2C[C@H]3CC[C@@H](C2)[C@@H]3Oc2ccc(C(F)(F)F)cc2OCC2CC2)nc1 [5-116]	100	100
CCCOc1cc(C(F)(F)F)ccc1OC1CCN(c2ccc(C(F)(F)F)cn2)C(C)C1 (stereo not shown) [1-93, 2-methyl-4-[2-propoxy-4-(trifluoromethyl)phenoxy]-1-[5-(trifluoromethyl)-2-pyridyl]piperidine]	100	100
COC(C)OCc1cc(C(F)(F)F)ccc1O[C@@H]1[C@@H]2CC[C@H]1CN(c1ccc(C(F)(F)F)cn1)C2 (stereo partly shown) [5-72]	100	100
CCCOCc1cc(C(F)(F)F)ccc1OC1C2CCC1CN(c1ccc(C(F)(F)F)cn1)C2 (stereo not shown) [5-217]	100	100
CC(C#N)OCc1cc(C(F)(F)F)ccc1OC1C2CCC1CN(c1ccc(C(F)(F)F)cn1)C2 (stereo not shown) [5-230]	100	100
CCOCc1cc(C(F)(F)F)ccc1OC1C2CCC1CN(c1ccc(C(F)(F)F)cn1)C2 (stereo not shown) [5-220]	100	100
CCOCc1cc(C(F)(F)F)ccc1OC1CCN(c2ccc(C(F)(F)F)cn2)CC1 [1-66]	100	100
C=CCOc1cc(C(F)(F)F)ccc1OC1C2CCC1CN(c1ccc(C(F)(F)F)cn1)C2 (stereo not shown) [5-149]	100	100
Cc1coc(-c2cc(C(F)(F)F)ccc2O[C@@H]2[C@@H]3CC[C@H]2CN(c2ccc(C(F)(F)F)cn2)C3)n1 [5-261]	100	100
COCc1cc(C(F)(F)F)ccc1OC1CCN(c2ccc(C(F)(F)F)cn2)CC1 [1-63]	100	100
CC(C)(C)OC(=O)c1cc(C(F)(F)F)ccc1O[C@@H]1[C@@H]2CC[C@H]1CN(c1ccc(C(F)(F)F)cn1)C2 [5-257]	100	100
CCCOc1cc(C(F)(F)F)ccc1OC1CCN(c2ccc(C(F)(F)F)cn2)CC1CC (stereo not shown) [1-186]	100	100
CCCOc1cc(C(F)(F)F)ccc1OC1CCN(c2ccc(C(F)(F)F)cn2)CC1CCC (stereo not shown) [1-191]	100	100
COCCOc1cc(C(F)(F)F)ccc1O[C@@H]1[C@@H]2CC[C@H]1CN(c1ccc(C(F)(F)F)cn1)C2 [5-124]	100	100
COc1cc(C(F)(F)F)ccc1OC1CCN(c2ccc(C(F)(F)F)cn2)CC1 [1-88]	100	100
CC1(C)COC(c2cc(C(F)(F)F)ccc2O[C@@H]2[C@@H]3CC[C@H]2CN(c2ccc(C(F)(F)F)cn2)C3)N1 (stereo partly shown) [5-262]	100	100
